From EPA's ToxValDB 9.5 (doi:10.2903/j.efsa.2017.4700) come the findings set out here.

For data set [1] the following is noted: reproduction developmental; clinical signs.
For a further data set, the system named is Apis mellifera. To be noted: acute, mortality.
A further data set concerns Canidae. To be noted: Dog Other, hematological.
The subject of a further data set is Tagia sp. To be noted: chronic/long-term; reproduction.
The next data set concerns Daphnia magna. To be noted: chronic/long-term; duration: 21 days; growth.
Another data set concerns Oncorhynchus mykiss. To be noted: acute; mortality.
In another data set the test system is Pimephales promelas. To be noted: chronic/long-term; other.
The subject of a further data set is Typhlodromus pyri. Description: LR50; higher = less toxic. To be noted: not reported; mortality.

Converted amounts (≈) assume the structure as drawn. “And” between values parts separate entries of the source, which are not always exact repeats. Identical values can stand only once. A value given as a limit tells only on which side of the number the result lay.

On to `CN(C)C(=S)SSC(=S)N(C)C` [Bis(dimethylaminothiocarbonyl) disulfide], for which the LD50 was 930 mg/kg-day in the data set with Colinus virginianus (acute, oral, mortality); greater than 100 µg/piece in the data set on Apis mellifera (dermal); greater than 107 µg/piece in the data set with Apis mellifera (oral, unspecified); 1800 mg/kg-day in the data set on Rattus norvegicus (acute, oral, mortality). Moreover, the NOEC with Colinus virginianus (reproduction developmental) amounted to 37.5 mg/kg-day; in the data set with Tagia sp. it was 8.45 mg/kg; in the data set with Daphnia magna, 20 µg/L; in the data set on Pimephales promelas, 1.1 µg/L. The NOAEL in [1] was 1.6 mg/kg-day; in the data set with Canidae (chronic, duration: 1 years), 0.84 mg/kg-day; with Canidae (subchronic, duration: 90 days), 2 mg/kg-day; in the data set with Rattus norvegicus (chronic) it was 1.6 mg/kg-day; in the data set with Rattus norvegicus (chronic, duration: 2 years, body weight), 1.5 mg/kg-day; with Rattus norvegicus (reproduction developmental, body weight), < 7.5 mg/kg-day and 3 mg/kg-day. In addition, in the data set with Oncorhynchus mykiss, the LC50 came out at 171 µg/L (≈ 0.711 µM). In the data set on Typhlodromus pyri, this compound came in with an LR50 of 511 g/ha.
